Reference: ChEMBL document CHEMBL5291721, “A preclinical secondary pharmacology resource illuminates target-adverse drug reaction associations of marketed drugs” (Nat Commun, 2023)

What was measured:
[1] = target: T1, Corticotropin-releasing factor receptor 1 (Homo sapiens, UniProt P34998)
T1 sequence (P34998 whole entry): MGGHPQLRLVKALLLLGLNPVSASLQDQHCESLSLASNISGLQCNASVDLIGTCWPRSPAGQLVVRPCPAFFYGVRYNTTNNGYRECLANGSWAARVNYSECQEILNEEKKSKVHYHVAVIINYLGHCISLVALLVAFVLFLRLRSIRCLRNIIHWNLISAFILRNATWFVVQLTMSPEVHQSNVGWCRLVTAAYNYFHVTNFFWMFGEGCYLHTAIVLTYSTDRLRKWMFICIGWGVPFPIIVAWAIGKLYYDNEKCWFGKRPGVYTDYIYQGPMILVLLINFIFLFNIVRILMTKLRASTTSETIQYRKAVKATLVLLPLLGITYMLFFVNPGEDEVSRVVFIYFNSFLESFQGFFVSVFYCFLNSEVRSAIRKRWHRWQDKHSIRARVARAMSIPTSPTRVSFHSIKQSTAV

[2] = target: Histamine H2 receptor (Homo sapiens, UniProt P25021)
[3] = target: T2, Endothelin receptor type B (Homo sapiens, UniProt P24530)
T2 sequence (P24530 whole entry): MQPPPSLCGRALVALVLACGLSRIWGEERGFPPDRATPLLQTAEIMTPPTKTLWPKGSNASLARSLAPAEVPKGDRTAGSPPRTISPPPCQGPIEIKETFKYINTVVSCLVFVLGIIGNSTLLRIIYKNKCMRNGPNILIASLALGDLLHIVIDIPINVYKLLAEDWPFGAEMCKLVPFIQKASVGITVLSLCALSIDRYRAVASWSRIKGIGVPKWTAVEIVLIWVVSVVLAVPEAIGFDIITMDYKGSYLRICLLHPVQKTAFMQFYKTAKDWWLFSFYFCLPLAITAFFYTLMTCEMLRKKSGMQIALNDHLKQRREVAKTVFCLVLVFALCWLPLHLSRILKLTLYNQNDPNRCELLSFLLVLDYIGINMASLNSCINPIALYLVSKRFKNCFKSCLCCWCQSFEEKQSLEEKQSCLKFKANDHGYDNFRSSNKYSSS

[4] = target: T3, D(4) dopamine receptor (Homo sapiens, UniProt P21917)
T3 sequence (P21917 whole entry): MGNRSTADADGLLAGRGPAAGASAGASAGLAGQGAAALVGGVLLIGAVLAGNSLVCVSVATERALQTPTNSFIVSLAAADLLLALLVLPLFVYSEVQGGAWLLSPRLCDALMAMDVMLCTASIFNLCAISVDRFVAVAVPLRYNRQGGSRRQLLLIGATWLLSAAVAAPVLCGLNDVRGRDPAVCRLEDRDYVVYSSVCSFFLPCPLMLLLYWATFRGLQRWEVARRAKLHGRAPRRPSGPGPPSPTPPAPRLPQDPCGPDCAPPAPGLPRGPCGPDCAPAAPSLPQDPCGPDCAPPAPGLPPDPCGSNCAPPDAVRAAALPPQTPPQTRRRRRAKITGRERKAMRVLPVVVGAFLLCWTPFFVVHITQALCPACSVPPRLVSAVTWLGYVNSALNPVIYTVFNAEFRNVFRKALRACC

[5] = target: T4, Muscarinic acetylcholine receptor M2 (Homo sapiens, UniProt P08172)
T4 sequence (P08172 whole entry): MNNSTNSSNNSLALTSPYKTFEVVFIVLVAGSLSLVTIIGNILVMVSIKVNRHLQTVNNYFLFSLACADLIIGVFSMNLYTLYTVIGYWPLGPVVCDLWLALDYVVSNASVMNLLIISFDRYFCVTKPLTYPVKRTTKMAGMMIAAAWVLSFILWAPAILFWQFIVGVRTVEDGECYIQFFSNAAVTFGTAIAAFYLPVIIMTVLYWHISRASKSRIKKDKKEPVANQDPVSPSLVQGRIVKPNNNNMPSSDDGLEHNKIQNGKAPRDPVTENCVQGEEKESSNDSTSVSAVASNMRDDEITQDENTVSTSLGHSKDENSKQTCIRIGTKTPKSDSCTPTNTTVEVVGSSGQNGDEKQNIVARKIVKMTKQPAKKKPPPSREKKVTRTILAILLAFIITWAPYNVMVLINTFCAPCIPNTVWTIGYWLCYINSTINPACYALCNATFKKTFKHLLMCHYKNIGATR

[6] = target: T5, 5-hydroxytryptamine receptor 1A (Homo sapiens, UniProt P08908)
T5 sequence (P08908 whole entry): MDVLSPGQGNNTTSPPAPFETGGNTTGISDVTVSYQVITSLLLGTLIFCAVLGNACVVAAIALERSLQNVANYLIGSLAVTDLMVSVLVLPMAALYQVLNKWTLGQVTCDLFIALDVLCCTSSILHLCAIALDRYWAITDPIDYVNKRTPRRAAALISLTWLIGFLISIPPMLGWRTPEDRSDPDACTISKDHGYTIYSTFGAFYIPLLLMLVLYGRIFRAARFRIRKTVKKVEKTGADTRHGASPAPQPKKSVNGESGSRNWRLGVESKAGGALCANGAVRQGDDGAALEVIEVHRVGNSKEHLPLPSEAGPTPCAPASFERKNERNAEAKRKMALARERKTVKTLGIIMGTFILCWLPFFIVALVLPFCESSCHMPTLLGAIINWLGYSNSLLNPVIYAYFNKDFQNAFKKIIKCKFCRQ

[7] = target: Substance-P receptor (Homo sapiens, UniProt P25103)
[8] = target: T6, Alpha-1A adrenergic receptor (Homo sapiens, UniProt P35348)
T6 sequence (P35348 whole entry): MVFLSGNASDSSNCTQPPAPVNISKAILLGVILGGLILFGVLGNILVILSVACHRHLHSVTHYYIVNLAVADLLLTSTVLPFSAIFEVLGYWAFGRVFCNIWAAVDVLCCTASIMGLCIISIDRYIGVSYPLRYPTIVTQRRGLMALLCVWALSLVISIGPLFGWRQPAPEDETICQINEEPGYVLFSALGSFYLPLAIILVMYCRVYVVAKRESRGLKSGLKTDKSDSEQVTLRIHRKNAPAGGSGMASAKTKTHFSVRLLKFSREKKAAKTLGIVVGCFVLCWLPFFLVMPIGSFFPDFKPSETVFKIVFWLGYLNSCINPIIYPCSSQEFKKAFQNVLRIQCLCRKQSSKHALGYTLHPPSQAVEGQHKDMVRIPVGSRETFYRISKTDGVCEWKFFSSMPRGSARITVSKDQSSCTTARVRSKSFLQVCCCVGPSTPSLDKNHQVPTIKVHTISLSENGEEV
Note: assay procedure not described here.

Chain of Histamine H2 receptor (P25021 whole entry): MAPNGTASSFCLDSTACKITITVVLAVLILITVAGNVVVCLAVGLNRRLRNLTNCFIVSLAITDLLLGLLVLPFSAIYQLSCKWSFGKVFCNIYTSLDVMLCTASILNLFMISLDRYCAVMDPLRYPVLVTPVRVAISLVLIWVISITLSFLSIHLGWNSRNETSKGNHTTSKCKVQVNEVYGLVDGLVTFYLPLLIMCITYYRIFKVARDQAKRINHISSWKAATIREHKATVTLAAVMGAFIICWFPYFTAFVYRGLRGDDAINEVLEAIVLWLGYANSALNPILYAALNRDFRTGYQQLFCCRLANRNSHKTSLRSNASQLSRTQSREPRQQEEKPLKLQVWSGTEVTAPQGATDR
Chain of Substance-P receptor (P25103 whole entry): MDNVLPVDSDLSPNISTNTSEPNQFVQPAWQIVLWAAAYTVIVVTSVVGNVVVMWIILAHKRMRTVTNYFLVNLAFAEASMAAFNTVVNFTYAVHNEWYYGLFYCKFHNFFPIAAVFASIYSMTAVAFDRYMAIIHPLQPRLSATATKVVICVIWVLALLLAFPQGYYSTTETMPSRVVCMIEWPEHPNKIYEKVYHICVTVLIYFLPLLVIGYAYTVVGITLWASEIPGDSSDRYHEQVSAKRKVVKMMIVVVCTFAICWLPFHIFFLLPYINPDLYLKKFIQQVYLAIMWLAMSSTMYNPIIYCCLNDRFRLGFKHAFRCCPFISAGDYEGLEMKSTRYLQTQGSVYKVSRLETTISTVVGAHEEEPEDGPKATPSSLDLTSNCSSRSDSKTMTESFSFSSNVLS

CCn1cc(C(=O)O)c(=O)c2cc(F)c(N3CCNCC3)nc21 [ENOXACIN]
AC50 [1]: > 30 µM | AC50 [2]: > 10 µM | AC50 [3]: > 30 µM | AC50 [4]: > 10 µM | AC50 [5]: > 10 µM | AC50 [6]: > 10 µM | AC50 [7]: > 10 µM

CC(=O)OCC[N+](C)(C)C [ACETYLCHOLINE]
AC50 [1]: > 30 µM | AC50 [2]: > 10 µM | AC50 [3]: > 30 µM | AC50 [4]: > 10 µM | AC50 [6]: > 10 µM | AC50 [7]: > 10 µM

Oc1c(I)cc(Cl)c2cccnc12 [CLIOQUINOL]
AC50 [8]: > 30 µM

COCCCOc1ccnc(C[S+]([O-])c2nc3ccccc3[nH]2)c1C (centres undefined) [RABEPRAZOLE]
AC50 [1]: > 30 µM | AC50 [2]: > 10 µM | AC50 [3]: > 30 µM | AC50 [4]: > 10 µM | AC50 [5]: > 10 µM | AC50 [6]: > 10 µM | AC50 [7]: > 10 µM

C[C@]1(COc2ccc(N3CCC(Oc4ccc(OC(F)(F)F)cc4)CC3)cc2)Cn2cc([N+](=O)[O-])nc2O1
AC50 [1]: > 30 µM | AC50 [2]: > 10 µM | AC50 [3]: > 30 µM | AC50 [4]: > 10 µM | AC50 [5]: > 10 µM | AC50 [6]: > 10 µM | AC50 [7]: > 10 µM

COc1ccc2c(c1)[C@]13CCCC[C@@H]1[C@H](C2)N(C)CC3 [DEXTROMETHORPHAN]
AC50 [1]: > 30 µM | AC50 [2]: > 10 µM | AC50 [3]: > 30 µM | AC50 [4]: > 10 µM | AC50 [5]: > 10 µM | AC50 [6]: > 10 µM | AC50 [7]: 6.94 µM

CCCCCCCC(=O)N[C@H](CN1CCCC1)[C@H](O)c1ccc2c(c1)OCCO2
AC50 [8]: > 30 µM

O=C(Nc1nc(-c2cc(Cl)cs2)c(N2CCN(C3CCCCC3)CC2)s1)c1cnc(N2CCC(C(=O)O)CC2)c(Cl)c1 [AVATROMBOPAG]
AC50 [2]: > 10 µM | AC50 [3]: > 10 µM | AC50 [4]: > 10 µM | AC50 [8]: > 30 µM | AC50 [5]: > 10 µM | AC50 [6]: > 10 µM | AC50 [7]: > 10 µM

C1CNCCN1 [PIPERAZINE]
AC50 [8]: > 30 µM

CNCCCC1c2ccccc2C=Cc2ccccc21 [PROTRIPTYLINE]
AC50 [5]: 0.653 µM

CCC(=O)O[C@@H]1CC(=O)O[C@H](C)C/C=C/C=C/[C@H](OC(C)=O)[C@H](C)C[C@H](CC=O)[C@H](O[C@@H]2O[C@H](C)[C@@H](O[C@H]3C[C@@](C)(OC(C)=O)[C@@H](OC(=O)CC)[C@H](C)O3)[C@H](N(C)C)[C@H]2O)[C@H]1OC [MIOCAMYCIN]
AC50 [8]: > 30 µM

CO[C@@]1(NC(=O)CSCC#N)C(=O)N2C(C(=O)O)=C(CSc3nnnn3C)CS[C@@H]21 [CEFMETAZOLE]
AC50 [8]: > 30 µM

C[C@H]1C[C@H]2[C@@H]3CCC4=CC(=O)C=C[C@]4(C)[C@@]3(Cl)[C@@H](O)C[C@]2(C)[C@@]1(O)C(=O)CO [BECLOMETHASONE]
AC50 [1]: > 30 µM | AC50 [2]: > 10 µM | AC50 [3]: > 30 µM | AC50 [4]: > 10 µM | AC50 [5]: > 10 µM | AC50 [6]: > 10 µM | AC50 [7]: > 10 µM
